Measured values as given in US20230331767A1, “TARGETED STEROID COMPOUNDS” (priority 2020, published 2023).

Tests used:
macrophage [1] = test: Flow cytometry of macrophage, CD 86 expression (M1 marker); assay type: cell-based, ND4 mice; conditions: 20 nanomolar compound, with or without folate-glucosamine competition; treatment for 24 hours
Description: FIG. 6 is an example of compound 101 in flow cytometry of macrophage gated on F4/80 to show CD 206 expression (a marker for M2, anti-inflammatory macrophages). Briefly, 1.5 mL of 3% thioglycolate were injected into the intraperitoneal cavity of 12-week-old ND4 mice. Three days later the macrophages were isolated by intraperitoneal lavage and plated in a 12-well dish and incubated at 37° C./5% CO2. […] 1 or 20 nanomolar of the compound in FIG. 1 plus 100-fold excess folate-glucosamine (to show receptor-specific binding) or untreated control or 10 nanomolar free dexamethasone (to show the effect of the free drug) and allowed to incubate at 37° C./5% CO2 for the allotted time. […] The samples were then washed 3 times with ice-cold 1% FBS in PBS before being analyzed by flow cytometry.
FIG. 8 is an example of Compound 101 in flow cytometry of macrophage to show CD 86 expression with controls.

macrophage [2] = test: Flow cytometry of thioglycolate-elicited peritoneal macrophages gated on F4/80, CD 206 expression (M2 marker); assay type: cell-based, ND4 mice; conditions: 20 nanomolar; targeted group vs competition group (plus 100-fold excess folate-glucosamine); macrophage gated on F4/80
Description: FIG. 6 is an example of compound 101 in flow cytometry of macrophage gated on F4/80 to show CD 206 expression (a marker for M2, anti-inflammatory macrophages). Briefly, 1.5 mL of 3% thioglycolate were injected into the intraperitoneal cavity of 12-week-old ND4 mice. Three days later the macrophages were isolated by intraperitoneal lavage and plated in a 12-well dish and incubated at 37° C./5% CO2. After 24 hours, the media was replaced with media containing 20 nanomolar the compound in FIGS. 1 or 20 nanomolar of the compound in FIG. 1 plus 100-fold excess folate-glucosamine (to show receptor-specific binding) or untreated control or 10 nanomolar free dexamethasone (to show the effect of the free drug) and allowed to incubate at 37° C./5% CO2 for the allotted time. Then 3 days later the cells were detached and incubated with the corresponding fluorescently labeled antibodies for 1 hour at 4° C. in 1% fetal bovine serum (FBS) in phosphate- buffered saline (PBS). The samples were then washed 3 times with ice-cold 1% FBS in PBS before being analyzed by flow cytometry.

colon = conditions: 10nmols i.v. on days 3 and 4; 2.5% DSS for 6 days; treated vs untreated colon, day 6
Description: 8-12 week old C57BL/6 mice were maintained on a folate free diet for at least three week dextran sodium sulfate (DSS) was added to their drinking water at a final concentration of 2.5% for 6 days. […] On day 6 the mice were euthanized by CO2 affixation followed by cervical dislocation. Then the colons were excised and prepared for histology as described previously (J Vis Exp. 2012; (60): 3678.). Briefly, the colons were cut out and the fecal contents were gently removed and washed in PBS. The colons were fixed in 10% buffered formalin for 24 hrs followed by transfer to 70% ethanol. These samples were submitted to the Purdue Veterinary Pathology lab where they were embedded in paraffin, sectioned, and stained with hematoxylin and eosin.

[3] = tested on: F4/80 (mouse macrophage), CD4 (T helper cell), CD8 (cytotoxic T cell), and Ly6G (neutrophil) cells; test: Thioglycollate-induced peritonitis, flow cytometry of peritoneal lavage cells; assay type: in vivo, BALB/C or Swiss Webster mice; conditions: treated group vs the untreated or vehicle, peritoneal cavity; for percentage of F4/80 macrophages: 10 nmol I.V. 48 hrs after induction stated for Compound 107
Description: Induced peritonitis with 1.5 mL 3% thioglycollate injected I.P. into either BALB/C or Swiss Webster mice maintained on a folate free diet for at least three weeks and treated with 10 nmol Compound 107 injected I.V. 48 hrs after induction. After an additional 48 hrs the mice were euthanized, and peritoneal lavage was performed using 2% fetal bovine serum (FBS) in phosphate buffered saline (PBS). Cells were passed through a 70 µm cell filter to remove debris then counted using a hemocytometer. Approximately 1 million cells pre-incubated in anti-CD16/32 (to block endogenous Fc receptor binding) for one hour on ice in 100 µL of 2% FBS in PBS. Then the cells incubated with at least one of the following fluorescently labeled antibodies for cell surface markers: PE-F4/80 or PE/Cy7-F4/80 (mouse macrophage), FITC-CD4 (T helper cell), eFluor780-CD8 (cytotoxic T cell), and PerCP/Cy5.5-Ly6G (neutrophil) according to the manufacturers recommended procedure on ice for 1 hour. Cells were washed twice with 1 mL of ice cold 2% FBS in PBS then suspended in 2% FBS in PBS. Controls included unstained cells as the negative control as well as the use of 1 drop of compensation beads per dye-antibody (1 µL) for a positive control incubated for 1 hour on ice and washed twice with 1 mL 2% FBS in PBS. All samples were centrifuged at 400xg for 10 min between washes, transfers and after incubation to remove supernatant.
Samples and appropriate controls were analyzed on an Attune NxT Acoustic Focusing Cytometer collecting between 10,000 and 30,000 events per sample utilizing laser lines BL1-A, BL2-A, BL3-A, and YL4-A for FITC-CD4, PE-F4/80, PerCP/Cy5.5-Ly6G and eFluor780-CD8 or PE/Cy7-F4/80, respectively. Flow cytometry data analysis involved first observing the cells run in the experiment using forward and side-scattering light (FSC and SSC, respectively). All observed cells were gated (R1) and analyzed for relative abundance of F4/80 (mouse macrophage), CD4 (T helper cell), CD8 (cytotoxic T cell), and Ly6G (neutrophil) cells within the population. Values from quadrant gating based on negative controls were then represented in bar graph form.

Compound | CD 86 expression (marker for M1, pro-inflammatory macrophages) (macrophage [1]) | CD 206 expression (marker for M2, anti-inflammatory macrophages) (macrophage [2]) | crypt architecture (colon histology) (colon) | infiltrating immune cells (colon histology) (colon) | number of goblet cells (colon histology) (colon) | percentage of FITC-CD4 (T helper cell) [3] | percentage of PerCP/Cy5.5-Ly6G (neutrophil) [3] | percentage of eFluor780-CD8 (cytotoxic T cell) [3] | percentage of F4/80 macrophages [3]
C[C@H]1C[C@@H]2[C@H]3CCC4=CC(=O)C=C[C@@]4(C)[C@]3(F)[C@H](O)C[C@@]2(C)[C@]1(O)C(=O)COC(=O)NCCSSC(C)(C)C(NC(=O)c1ccc(NCc2cnc3nc(N)[nH]c(=O)c3n2)cc1)C(=O)O (some centres unmarked) [Compound 101, Folate-Hydrolink-Cysteine-Carbonate-Dexamethasone] | no observable differences | Increased expression of CD 206 in the targeted group over the competition group | – | – | – | – | – | – | –
Folate-AlbuminBinder-PEG2-Hydrolink-DimethylCysteine-Carbamate-Dexamethasone [Compound 107] | – | – | more crypt architecture | fewer infiltrating immune cells | higher number of goblet cells | lower | lower | lower | lower
Folate-PEG2-Hydrolink-DimethylCysteine-Carbamate-Dexamethasone [Compound 106] | – | – | – | – | – | – | – | – | lower
Folate-PEG12(CH2)-Pyrophosphate-Dexamethasone [Compound 108] | – | – | – | – | – | lower | lower | lower | lower
